Measurements as given in US20150147385A1, “INTRAVENOUS SYNTHETIC CURCUMIN (S-CURCUMIN) FOR THE TREATMENT OF PROLIFERATIVE DISORDERS” (SignPath Pharma, Inc., priority 2013, published 2015).
≈ marks a conversion by molar mass, not a printed value. Where two headings read alike, the source gives them in different places.

What was measured:
[1] = Solubilities of S-curcumin and C3-complex curcumin in different organic solvents; type: physicochemical; conditions: for solubility: organic solvent or mixture, read-out: Conc. (solubility)
Source text: Comparison of PLGA C3-complex-curcumin vs PLGA S-curcumin indicated the following differences. The solubilities of 99.2% S-Curcumin in all four solvents. […] This confers improved manufacturing capability, and attributes to different pharmacokinetics and pharmacodynamics in in vivo settings (Table 1). [table]

[2] = test system: breast cancer cell line MCF10ACA1H; assay: Scratch assay (wound healing) in MCF10ACA1H; type: cell-based, human; conditions: 12 hour exposure

## COc1cc(C=CC(=O)CC(=O)C=Cc2ccc(O)c(OC)c2)ccc1O [S-curcumin, 1,7-bis(4-hydroxy-3-methoxyphenyl)-1,6-heptadiene-3,5-dione]
[1]; normalized to equal concentrations, ethanol, ethyl acetate, acetone, acetonitrile
  Solubility compared with C3 complex: greater solubility
[1]; solvent acetone
  solubility: 42300 µg/mL (≈ 115 mM)
  1 g of solvent solubilize in solvent: 23.6 mL
  Physical appearance of solubility: Fully
[1]; solvent acetonitrile
  solubility: 5440 µg/mL (≈ 14.8 mM)
  1 g of solvent solubilize in solvent: 184 mL
  Physical appearance of solubility: Partial
[1]; solvent ethanol
  solubility: 3800 µg/mL (≈ 10.3 mM)
  1 g of solvent solubilize in solvent: 263 mL
  Physical appearance of solubility: Partial
[1]; solvent ethyl acetate
  solubility: 10400 µg/mL (≈ 28.2 mM)
  1 g of solvent solubilize in solvent: 96.2 mL
  Physical appearance of solubility: Partial
[2]
  More effective than C3-curcumin in interfering with wound healing: 30%
